# According to patent US7452869B2, “NIP3 family of proteins” (University of Manitoba, priority 2000, dated 2008):
# Entries after “also recorded” stand apart in the source; their conditions may differ.
# Key:
# BNIP3 [1] = assay: intrastriatal injection in rats, BNIP3 immunohistochemistry and in situ hybridization; type: in vivo; details: rat
# Description: Male Sprague-Dawley rats, with body weights ranging between 200 to 250 g, were obtained from the University of Manitoba Central Animal Care breeding facility. All procedures followed Canadian Council on Animal Care guidelines and were approved by the Animal Care Committee at the University of Manitoba. Animals were anesthetized with 74 mg/kg sodium pentobarbital (i.p.) and placed in a stereotaxic surgery frame. Unilateral intrastriatal injections were performed using the following coordinates (in mm); AP […], ML 3.0 and DV 4.5 (Paxinos, G. et al. (1986)). Drugs were administered over a 5 minute period in a volume of 1 μl using a 10 μl syringe fitted with a 30-gauge needle. Following injection, the needle was left in place for 5 minutes before being slowly withdrawn to allow diffusion of the drug away from the injection site. Kainic acid, dissolved in 50 mM Tris-HCl with the pH adjusted to 7.4 with NaOH, was administered at a dose of 2.5 nmol. Control rats received unilateral injections of 1 μl 50 mM Tris-HCl, pH 7.4. […]
# For immunohistochemistry and in situ hybridization, rats were perfused transcardially with 0.9% saline and then 4% paraformaldehyde. […] Brain sections were hybridized with the probe, incubated with an alkaline phosphatase-conjugated anti-digoxigenin antibody, and labeled cells were detected with BCIP/NBT.
# [2] = tested on: primary hippocampal neurons; assay: excitotoxic cell death of primary hippocampal neurons, trypan blue exclusion; type: cell-based, rat
# Description: (§1) Primary hippocampal neurons were prepared from 18-day-old embryonic Sprague-Dawley rats as described previously by Haughey, N. J. et al. (2001). Briefly, hippocampal tissue was dissociated by gentle tituration in a calcium-free Hank's balanced salt solution and was centrifuged at 1000×g. Cells were resuspended in Dulbecco's modified Eagle's medium (DMEM)/F12 nutrient mixture containing 10% heat-inactivated fetal bovine serum and 1% antibiotic solution (104 IU of penicillin G/ml, 10 mg streptomycin/ml and 25 μg amphotericin B/ml) in 0.9% NaCl (Sigma, St Louis, Mo., USA). Hippocampal neurons were plated at a density of 2×10^5 cells/ml on 12-mm diameter poly d-lysine-coated glass coverslips. Three hours after plating, the media was replaced with serum-free Neurobasal media containing 1% B-27 supplement (Gibco, Rockville, Md., USA).
# To determine the extent to which NMDA-type glutamate receptors were involved in BNIP3 expression and excitotoxic cell death, the inventors used the agonist NMDA (100 μM) in the absence or presence of the NMDA receptor antagonist MK-801 (10 μM). To determine the extent to which caspase activation contributes to BNIP3-mediated cell death, hippocampal cells were incubated in the absence or presence of the broad spectrum cell permeable caspase inhibitors z-VAD-FMK (50 μM) and BOC-D-FMK (50 μM); these inhibitors were applied 30 minutes prior to application of glutamate or NMDA. […]
# In vitro cell death was estimated using trypan blue exclusion. Cells were incubated in 0.4% trypan blue solution for 30 minutes and then counted on a bright-field microscope. Nonviable cells were distinguished by their dark blue staining. To examine nuclear morphology, nuclear DNA was stained with Hoescht 33342. DNA fragmentation was detected by TUNEL using an in situ cell death detection kit with fluorescein. Statistical analyses were by ANOVA with Tukey's post-test.
# BNIP3 [3] = assay: BNIP3 immunohistochemistry in primary hippocampal neurons after glutamate; type: cell-based, rat; details: 100 μM glutamate
# Description: as §1
# For immunohistochemistry and in situ hybridization, rats were perfused transcardially with 0.9% saline and then 4% paraformaldehyde. Brains were carefully removed and post-fixed overnight in PBS containing 4% paraformaldehyde. After rinsing in PBS, the brains were placed in PBS containing 0.5 M sucrose (pH 7.3) at 4° C. until buoyancy was lost. […] Brain sections were hybridized with the probe, incubated with an alkaline phosphatase-conjugated anti-digoxigenin antibody, and labeled cells were detected with BCIP/NBT.
# PT pore = assay: mitochondrial Dcm (DiOC6), ROS production (HE) and PI staining by flow cytometry in BNIP3-transfected 293T cells; type: cell-based
# Description: Changes in mitochondrial function were determined by incubating 10 6 293T cells, transiently transfected via the CaP04 method, with either 1 mM JC-1, 40 nM DiOC6, or 2 mM dihydroethidium (HE) (all from Molecular Probes, Inc.) for 30 minutes at 37° C. in Hanks' balanced salt solution (Gibco-BRL). Cells were scored using a FACScalibur flow cytometer (Becton-Dickinson, San Jose, Calif.), and data were analyzed on Celiquest software, version 3.1 (Becton-Dickinson). Controls were performed in the presence or absence of […] mClCCP (Sigma) or an excess of 30% H2 02. For inhibition experiments, cyclosporin A (Sigma) or bongkrekic acid (a gift from J. A. Duine, Delft University, Delft, The Netherlands) was added 2 hours prior to transfection. All cells were harvested 8 hours after transfection and stained with 40 nM DiOC6, 2 mM HE, or 1 mg of propidium iodide (PI) (Sigma) per ml. In all cases, samples were gated to exclude cellular debris.
# ventricular myocytes = assay: cell viability of ventricular myocytes, calcein acetoxymethyl ester / ethidium homodimer-1; type: cell-based; details: Bongkrekic acid 50 μmol/L
# Description: Ventricular myocytes were isolated from 1- to 2-day-old Sprague-Dawley rats (University of Manitoba, Winnipeg, Canada) and submitted to primary culture as reported (Kirshenbaum and Schneider, 1995). Myocytes were subjected to hypoxia for 24 hours in an air-tight chamber continually gassed with 95% N2-5% CO2, as previously reported (Moissac et al., 2000; Long et al., 1997; Tanaka et al., 1994). Adult rat hearts (n=3) were excised from adult rats (250 to 300 g) and subjected to global hypoxia for 1 hour on a modified Langendorff perfusion system with buffer continually gassed with 95% N2-5% CO2, as previously reported (Kirshenbaum, 1993). Heart failure was induced in rats by surgical ligation of the left anterior descending coronary artery, as previously reported (Dixon et al., 1992). Non-failing sham control hearts and those with heart failure were excised from animals 8 weeks after myocardial infarction. Hearts (n=3) were dissected to remove the infarcted scar tissue, and the left ventricular free wall was homogenized and analyzed by Western blot for BNIP3 expression. Animals were handled according to guidelines established by the University of Manitoba and Canadian Council on Animal Care.
# The cDNAs for BNIP3 full-length (BNIP3) and carboxyl terminal transmembrane domain deletion mutant (BNIP3ΔTM) have been described previously (Vande et al., 2000). Recombinant adenoviruses encoding the full-length BNIP3 or transmembrane deletion mutant are designated AdBNIP3 or AdBNIP3ΔTM, respectively, and generated as reported previously (Kirshenbaum et al., 1993).
# Cell viability was determined using the vital dyes 2 μmol/L calcein acetoxymethyl ester (green) to determine the number of living cells and 2 μmol/L ethidium homodimer-1 (red) (Molecular Probes) to identify the number of dead cells (Kirshenbaum and Schneider, 1995). The number of green cells versus red cells was used to determine changes in cell viability (Moissac et al., 2000). Cells were analyzed from at least n=3 independent myocyte isolations counting ≧200 cells for each condition tested. Data are expressed as mean±SE percent reduction from control.
# [4] = tested on: mitochondrial permeability transition pore; assay: mitochondrial permeability transition in ventricular myocytes, calcein-AM with cobalt chloride; type: cell-based, rat; details: Bongkrekic acid 50 μmol/L
# From the text: To monitor mitochondrial permeability transition (PT), ventricular myocytes were loaded with 5 μmol/L calcein-acetoxymethylester (calcein-AM, Molecular Probes) in the presence of 2 to 5 mmol/L cobalt chloride as previously reported (Gurevich et al., 2001; Petronilli et al., 1998).
# BNIP3 [5] = assay: western blot of BNIP3 in neonatal cardiac myocytes treated with lactacystin (FIG. 12); type: cell-based; details: hypoxic or normoxic 24 hours
# Description: Neonatal cardiac myocytes were incubated in hypoxic (+) or normoxic (−) conditions for 24 hours. Cells were treated with lactacystin at the indicated concentrations and lysates harvested for western blotting with anti-BNIP3 antibody. BNIP3 band is indicated with an arrow.
# [6] = drug 2 hours prior to transfection, harvested 8 hours posttransfection, 25 and 50 mM cyclosporin A, 100 mM bongkrekic acid
structure (smiles),measurement,setting,value
C=C(C)[C@H]1CN[C@H](C(=O)O)[C@H]1CC(=O)O [kainic acid],BNIP3 expression in striatum (immunohistochemistry),"BNIP3 [1]; intrastriatal 1 μl, 2.5 nmol kainic acid, 5 nmol CNQX alone or mixed with kainic acid, 48 hours",observed only in those rats that received kainic acid alone
same,levels of BNIP3 mRNA (in situ hybridization),BNIP3 [1]; intrastriatal kainic acid,increased
N[C@@H](CCC(=O)O)C(=O)O [glutamate],hippocampal neurons killed,"[2]; 10 μM glutamate for 6 hours, then Neurobasal media 24 hours",40%
same,cells stained positively for trypan blue,"[2]; 100 μM glutamate for 6 hours, then Neurobasal media 24 hours",70%
same,neuronal cell death (trypan blue exclusion),"[2]; 6 hours after application, p<0.01",significantly increased
same,cells stained positive for BNIP3,BNIP3 [3],more than 50%
CO[C@H](C/C=C\C=C\CC/C=C/C[C@H](C)/C=C/C(=C\C(=O)O)CC(=O)O)/C(C)=C\C=C(/C)C(=O)O [bongkrekic acid],"maximum suppression of BNIP3 effects, of that in control cells","PT pore; Dcm suppression, ROS generation and cell death",about 50%
same,cell death (PI staining) in BNIP3 transfectants,"PT pore; drug 2 hours prior to transfection, harvested 8 hours posttransfection, 50 mM cyclosporin A, 100 mM bongkrekic acid",dose-dependent reversal; also recorded: significantly suppressed
same,Dcm suppression (DiOC6) in BNIP3 transfectants,PT pore; [6],dose-dependent reversal; also recorded: significantly inhibited
same,ROS generation (HE fluorescence) in BNIP3 transfectants,PT pore; [6],dose-dependent reversal; also recorded: inhibited
same,BNIP3-induced mitochondrial defects and cell death,ventricular myocytes,prevented
same,BNIP3-induced loss of mitochondrial calcein staining,[4],suppressed
CC(=O)N[C@@H](CSC(=O)[C@]1([C@@H](O)C(C)C)NC(=O)[C@H](C)[C@@H]1O)C(=O)O [Lactacystin],degradation of the BNIP3 protein (western blot),BNIP3 [5],slows the degradation
